Key:
guinea pigs = experiment: blood pressure-lowering effectiveness on narcotised guinea pigs, intravenous; type: in vivo, guinea pig; settings: for blood pressure previously: before administration
[1] = acute toxicity, intravenous; type: in vivo; settings: mouse, in vivo, iv; read-out: Evaluated LD50-range
female NMRI-albino mice = experiment: acute toxicity, intravenous; type: in vivo; settings: mouse, in vivo
[2] = acute toxicity, p.o. and i.p. (footnote of Table VII); type: in vivo; settings: mouse, in vivo, ip
mouse = experiment: as above; type: in vivo; settings: p.o.
[3] = test system: isolated rat aorta preparations; experiment: spasmolytic effectiveness, noradrenaline-induced contractions; settings: read-out: ED50 noradrenaline spasm
[4] = test system: isolated rat aorta preparations; experiment: spasmolytic effectiveness, potassium chloride-induced contractions; settings: read-out: ED50 potassium chloride spasm

Nc1ncnc2c1ncn2[C@H]1CO[C@H]2[C@@H]1OC[C@@H]2O[N+](=O)[O-] [1c/2c, 5-(9-Adenyl)-5-desoxy-1.4;3.6-dianhydro-L-iditol 2-nitrate]
blood pressure afterwards (guinea pigs; 0.25 mg/kg i.v.): 50.50 ± 2.33 mm. Hg
blood pressure Δ (guinea pigs; 0.25 mg/kg i.v.): -17.75 mm. Hg
blood pressure previously (guinea pigs; 0.25 mg/kg i.v.): 68.25 ± 2.50 mm. Hg
blood pressure afterwards (guinea pigs; 1.00 mg/kg i.v.): 41.50 ± 3.97 mm. Hg
blood pressure Δ (guinea pigs; 1.00 mg/kg i.v.): -28.00 mm. Hg
blood pressure previously (guinea pigs; 1.00 mg/kg i.v.): 69.50 ± 2.90 mm. Hg
blood pressure afterwards (guinea pigs; 2.50 mg/kg i.v.): 38.75 ± 2.66 mm. Hg
blood pressure Δ (guinea pigs; 2.50 mg/kg i.v.): -31.25 mm. Hg
blood pressure previously (guinea pigs; 2.50 mg/kg i.v.): 70.00 ± 2.27 mm. Hg
blood pressure-lowering effectiveness, comparison (guinea pigs; i.v.): even more effective than ISDN
LD50 at 24 h [1]: > 200 mg/kg
Frequency of death (female NMRI-albino mice): 0/6
LD50 [2]: 540 mg/kg
LD70 p.o. mouse (mouse): 1600 mg/kg
IC50 [3]: 0.135 µM
IC50 [4]: 2.8 µM

— US4479951A, “1.4;3.6-Dianhydrohexitol nitrates substituted by purine bases, processes for their preparation and pharmaceutical compositions” (Dr. Willmar Schwabe GmbH & Co., priority 1980, dated 1984)
